Results reported in PubChem BioAssay AID686918 (Sanford-Burnham Center for Chemical Genomics, 2013).
Active and inactive are the calls of the source.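 Rule for the calls: active = thrombin counterscreen IC50 at or below 100 µM; inactive = the rest.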

Target: Prothrombin (Bos taurus) (UniProt P00735)
Test: bovine thrombin protease inhibition, dose response, counter-screen for Rpn11 inhibitor project, biochemical, fluorescence polarization, SAR validation (AID 686918)
Details: bovine thrombin cleavage of Ub4-pepOG

Chain of Prothrombin (Bos taurus) (P00735 whole entry, looked up): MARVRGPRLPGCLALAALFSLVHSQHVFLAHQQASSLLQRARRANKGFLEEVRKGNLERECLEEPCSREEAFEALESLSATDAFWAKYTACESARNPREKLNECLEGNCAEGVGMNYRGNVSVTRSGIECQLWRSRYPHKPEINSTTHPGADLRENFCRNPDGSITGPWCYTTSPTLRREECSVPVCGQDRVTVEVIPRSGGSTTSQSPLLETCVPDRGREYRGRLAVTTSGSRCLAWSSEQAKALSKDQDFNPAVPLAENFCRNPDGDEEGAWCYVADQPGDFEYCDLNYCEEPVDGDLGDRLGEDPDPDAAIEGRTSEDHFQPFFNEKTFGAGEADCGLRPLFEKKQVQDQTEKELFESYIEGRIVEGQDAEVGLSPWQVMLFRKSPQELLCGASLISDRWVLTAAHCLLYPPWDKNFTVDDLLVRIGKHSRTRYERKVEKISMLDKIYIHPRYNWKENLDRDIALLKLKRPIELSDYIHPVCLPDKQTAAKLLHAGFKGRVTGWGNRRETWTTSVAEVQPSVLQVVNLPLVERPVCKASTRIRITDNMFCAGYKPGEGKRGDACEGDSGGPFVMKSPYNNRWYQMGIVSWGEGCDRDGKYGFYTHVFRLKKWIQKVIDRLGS

SMILES | IC50
COc1ccc(C(=O)Sc2cccc3cccnc23)cc1OC | > 99 µM (inactive)
O=C(Sc1cccc2cccnc12)c1ccc(F)cc1 | > 99 µM (inactive)
O=C(Sc1cccc2cccnc12)c1ccc([N+](=O)[O-])cc1 | > 99 µM (inactive)
CC[C@@H](C)[C@H](NC(=O)c1cnc2c(SSc3cccc4cc(C(=O)N[C@H](C(=O)O)[C@H](C)CC)cnc34)cccc2c1)C(=O)O | > 99 µM (inactive)
COC(=O)c1cnc2c(SSc3cccc4cc(C(=O)OC)cnc34)cccc2c1 | > 99 µM (inactive)
O=C(Sc1cccc2cccnc12)c1ccccc1F | > 99 µM (inactive)
O=C(Sc1cccc2cccnc12)C1CCCCC1 | > 99 µM (inactive)
C[C@@H](C(=O)O)N(C)C(=O)c1cnc2c(SSc3cccc4cc(C(=O)N(C)[C@@H](C)C(=O)O)cnc34)cccc2c1 | > 99 µM (inactive)
CCOc1ccccc1C(=O)Sc1cccc2cccnc12 | > 99 µM (inactive)
COC(=O)[C@H](C)NC(=O)c1ccnc2c(SSc3cccc4c(C(=O)N[C@@H](C)C(=O)OC)ccnc34)cccc12 | > 99 µM (inactive)
O=C(Sc1cccc2cccnc12)c1ccc2c(c1)OCO2 | > 99 µM (inactive)
N#Cc1cccc(C(=O)Sc2cccc3cccnc23)c1 | > 99 µM (inactive)
CC(C)[C@H](NC(=O)c1cnc2c(SSc3cccc4cc(C(=O)N[C@H](C(=O)O)C(C)C)cnc34)cccc2c1)C(=O)O | > 99 µM (inactive)
COC(=O)[C@@H](NC(=O)c1cnc2c(SSc3cccc4cc(C(=O)N[C@H](C(=O)OC)C(C)C)cnc34)cccc2c1)C(C)C | > 99 µM (inactive)
O=C(O)[C@@H]1CCCN1C(=O)c1cnc2c(SSc3cccc4cc(C(=O)N5CCC[C@H]5C(=O)O)cnc34)cccc2c1 | > 99 µM (inactive)
COC(=O)[C@H](CO)NC(=O)c1cnc2c(SSc3cccc4cc(C(=O)N[C@@H](CO)C(=O)OC)cnc34)cccc2c1 | > 99 µM (inactive)
COC(=O)[C@H](CC(C)C)NC(=O)c1cnc2c(SSc3cccc4cc(C(=O)N[C@@H](CC(C)C)C(=O)OC)cnc34)cccc2c1 | > 99 µM (inactive)
O=C(Sc1cccc2cccnc12)c1ccc(F)c(F)c1 | > 99 µM (inactive)
COC(=O)C[C@H](NC(=O)c1cnc2c(SSc3cccc4cc(C(=O)N[C@@H](CC(=O)OC)C(=O)OC)cnc34)cccc2c1)C(=O)OC | > 99 µM (inactive)
CC[C@@H](C)[C@H](NC(=O)c1cnc2c(SSc3cccc4cc(C(=O)N[C@H](C(=O)OC)[C@@H](C)CC)cnc34)cccc2c1)C(=O)OC | > 99 µM (inactive)
O=C(Sc1cccc2cccnc12)c1ccc(C(F)(F)F)cc1 | > 99 µM (inactive)
O=C(Sc1cccc2cccnc12)c1ccccc1I | > 99 µM (inactive)
O=C(Sc1cccc2cccnc12)c1cccc2ccccc12 | > 99 µM (inactive)
CCCc1ccc(C(=O)Sc2cccc3cccnc23)cc1 | > 99 µM (inactive)
O=C(Sc1cccc2cccnc12)c1ccccc1 | > 99 µM (inactive)
O=C(Sc1cccc2cccnc12)c1c(Cl)cccc1Cl | > 99 µM (inactive)

Continued, values first:

IC50 | SMILES
> 99 µM (inactive) | Cc1cccc(C(=O)Sc2cccc3cccnc23)c1
> 99 µM (inactive) | O=C(Sc1cccc2cccnc12)c1ccccc1Br
> 99 µM (inactive) | O=C(O)c1cnc2c(SSc3cccc4cc(C(=O)O)cnc34)cccc2c1
> 99 µM (inactive) | COc1ccc(C(=O)Sc2cccc3cccnc23)cc1
> 99 µM (inactive) | O=C(Sc1cccc2cccnc12)c1cccc(C(F)(F)F)c1
> 99 µM (inactive) | COC(=O)[C@H](C)N(C)C(=O)c1cnc2c(SSc3cccc4cc(C(=O)N(C)[C@@H](C)C(=O)OC)cnc34)cccc2c1
> 99 µM (inactive) | O=C(Sc1cccc2cccnc12)c1ccccc1[N+](=O)[O-]
> 99 µM (inactive) | COC(=O)[C@H](C)NC(=O)c1cnc2c(SSc3cccc4cc(C(=O)N[C@@H](C)C(=O)OC)cnc34)cccc2c1
> 99 µM (inactive) | O=C(Sc1cccc2cccnc12)c1ccccc1Cl
> 99 µM (inactive) | CC(C)(C)OC(=O)CCNC(=O)c1cnc2c(SSc3cccc4cc(C(=O)NCCC(=O)OC(C)(C)C)cnc34)cccc2c1
> 99 µM (inactive) | COc1ccc(C(=O)Sc2cccc3cccnc23)cc1F
> 99 µM (inactive) | Cc1ccc(C(=O)Sc2cccc3cccnc23)cc1
> 99 µM (inactive) | CC(C)Cc1ccc(C(=O)Sc2cccc3cccnc23)cc1
> 99 µM (inactive) | COc1ccccc1C(=O)Sc1cccc2cccnc12
> 99 µM (inactive) | Cc1ccccc1C(=O)Sc1cccc2cccnc12
> 99 µM (inactive) | O=C(Sc1cccc2cccnc12)c1ccc(F)cc1F
> 99 µM (inactive) | CC(C)C[C@H](NC(=O)c1cnc2c(SSc3cccc4cc(C(=O)N[C@@H](CC(C)C)C(=O)O)cnc34)cccc2c1)C(=O)O
> 99 µM (inactive) | O=C(Sc1cccc2cccnc12)c1ccccc1OC(F)(F)F
> 99 µM (inactive) | COC(=O)[C@@H]1CCCN1C(=O)c1cnc2c(SSc3cccc4cc(C(=O)N5CCC[C@H]5C(=O)OC)cnc34)cccc2c1
> 99 µM (inactive) | O=C(Sc1cccc2cccnc12)c1cccc(Cl)c1
> 99 µM (inactive) | N#Cc1ccc(C(=O)Sc2cccc3cccnc23)cc1
> 99 µM (inactive) | COc1cccc(C(=O)Sc2cccc3cccnc23)c1
